Legend:
[1] = target: T1, Mitogen-activated protein kinase 15 (Homo sapiens) (UniProt Q8TD08); test: Inhibition of ERK8 (unknown origin) assessed as residual activity at 1000 nM by KINOMEscan analysis relative to control
T1 sequence (whole entry): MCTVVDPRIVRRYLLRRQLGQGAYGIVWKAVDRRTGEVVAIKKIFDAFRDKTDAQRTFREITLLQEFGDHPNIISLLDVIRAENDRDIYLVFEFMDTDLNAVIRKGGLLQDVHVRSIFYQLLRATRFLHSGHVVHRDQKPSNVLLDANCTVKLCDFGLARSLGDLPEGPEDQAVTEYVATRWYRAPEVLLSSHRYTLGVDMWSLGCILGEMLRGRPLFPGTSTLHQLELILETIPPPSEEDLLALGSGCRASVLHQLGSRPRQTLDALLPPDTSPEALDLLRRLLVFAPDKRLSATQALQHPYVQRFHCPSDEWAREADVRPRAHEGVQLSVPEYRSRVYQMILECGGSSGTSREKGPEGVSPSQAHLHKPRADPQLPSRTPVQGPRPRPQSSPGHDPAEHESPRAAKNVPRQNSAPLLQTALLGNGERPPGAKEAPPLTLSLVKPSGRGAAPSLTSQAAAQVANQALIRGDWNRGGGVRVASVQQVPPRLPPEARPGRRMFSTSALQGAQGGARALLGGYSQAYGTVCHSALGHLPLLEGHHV

[2] = target: Tyrosine-protein kinase Fes/Fps (Homo sapiens) (UniProt P07332); test: Inhibition of FES (unknown origin) assessed as residual activity at 1000 nM by KINOMEscan analysis relative to control
Sequence of Tyrosine-protein kinase Fes/Fps (Homo sapiens) (P07332 whole entry): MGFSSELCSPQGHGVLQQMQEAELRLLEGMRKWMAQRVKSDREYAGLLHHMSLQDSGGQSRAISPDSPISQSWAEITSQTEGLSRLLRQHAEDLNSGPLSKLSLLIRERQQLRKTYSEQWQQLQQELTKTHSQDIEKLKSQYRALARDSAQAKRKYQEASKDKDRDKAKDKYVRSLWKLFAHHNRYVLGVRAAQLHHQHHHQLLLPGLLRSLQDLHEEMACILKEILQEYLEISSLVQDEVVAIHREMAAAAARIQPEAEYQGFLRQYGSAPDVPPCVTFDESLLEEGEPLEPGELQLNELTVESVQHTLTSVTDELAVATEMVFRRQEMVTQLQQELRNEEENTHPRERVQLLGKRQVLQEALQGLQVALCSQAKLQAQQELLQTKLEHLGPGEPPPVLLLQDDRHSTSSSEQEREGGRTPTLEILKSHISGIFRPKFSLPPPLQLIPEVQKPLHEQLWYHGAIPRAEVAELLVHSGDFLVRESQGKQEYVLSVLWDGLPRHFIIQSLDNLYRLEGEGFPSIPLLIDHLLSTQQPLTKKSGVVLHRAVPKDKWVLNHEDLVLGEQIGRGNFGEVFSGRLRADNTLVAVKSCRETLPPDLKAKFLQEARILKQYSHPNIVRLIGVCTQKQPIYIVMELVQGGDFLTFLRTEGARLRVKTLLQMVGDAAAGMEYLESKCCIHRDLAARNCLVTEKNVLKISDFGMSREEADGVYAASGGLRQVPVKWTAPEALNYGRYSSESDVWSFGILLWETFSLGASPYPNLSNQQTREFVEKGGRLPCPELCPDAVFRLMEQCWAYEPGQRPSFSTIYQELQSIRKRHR

[3] = test system: Fibroblast growth factor receptor 3 (Homo sapiens), P22607 [G697C]; test: Inhibition of FGFR3 G697C mutant (unknown origin) assessed as residual activity at 1000 nM by KINOMEscan analysis relative to control
Sequence of Fibroblast growth factor receptor 3 (Homo sapiens), P22607 [G697C] (P22607 whole entry G697C): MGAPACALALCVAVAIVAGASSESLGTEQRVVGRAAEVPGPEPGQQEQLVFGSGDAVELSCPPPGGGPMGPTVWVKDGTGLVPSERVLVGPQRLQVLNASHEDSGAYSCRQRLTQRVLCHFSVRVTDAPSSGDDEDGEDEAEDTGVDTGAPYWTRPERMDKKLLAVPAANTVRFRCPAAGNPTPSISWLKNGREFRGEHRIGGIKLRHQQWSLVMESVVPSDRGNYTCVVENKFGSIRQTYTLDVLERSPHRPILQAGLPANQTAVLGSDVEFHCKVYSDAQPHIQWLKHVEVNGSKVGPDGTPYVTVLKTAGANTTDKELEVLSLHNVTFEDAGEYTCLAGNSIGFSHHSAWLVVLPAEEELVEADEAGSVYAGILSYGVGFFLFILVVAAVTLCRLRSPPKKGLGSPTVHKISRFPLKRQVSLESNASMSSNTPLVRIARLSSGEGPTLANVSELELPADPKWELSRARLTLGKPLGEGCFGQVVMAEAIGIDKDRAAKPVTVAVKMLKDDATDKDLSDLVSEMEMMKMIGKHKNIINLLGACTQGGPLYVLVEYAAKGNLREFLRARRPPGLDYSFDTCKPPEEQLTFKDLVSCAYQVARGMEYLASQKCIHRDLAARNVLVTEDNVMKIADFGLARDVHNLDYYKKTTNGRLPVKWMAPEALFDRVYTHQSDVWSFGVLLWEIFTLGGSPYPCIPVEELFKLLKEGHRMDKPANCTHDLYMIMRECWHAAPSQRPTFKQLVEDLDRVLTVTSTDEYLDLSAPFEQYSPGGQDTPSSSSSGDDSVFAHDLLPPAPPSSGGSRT

[4] = target: T2, Rhodopsin kinase GRK1 (Homo sapiens) (UniProt Q15835); test: Inhibition of GRK1 (unknown origin) assessed as residual activity at 1000 nM by KINOMEscan analysis relative to control
T2 sequence (whole entry): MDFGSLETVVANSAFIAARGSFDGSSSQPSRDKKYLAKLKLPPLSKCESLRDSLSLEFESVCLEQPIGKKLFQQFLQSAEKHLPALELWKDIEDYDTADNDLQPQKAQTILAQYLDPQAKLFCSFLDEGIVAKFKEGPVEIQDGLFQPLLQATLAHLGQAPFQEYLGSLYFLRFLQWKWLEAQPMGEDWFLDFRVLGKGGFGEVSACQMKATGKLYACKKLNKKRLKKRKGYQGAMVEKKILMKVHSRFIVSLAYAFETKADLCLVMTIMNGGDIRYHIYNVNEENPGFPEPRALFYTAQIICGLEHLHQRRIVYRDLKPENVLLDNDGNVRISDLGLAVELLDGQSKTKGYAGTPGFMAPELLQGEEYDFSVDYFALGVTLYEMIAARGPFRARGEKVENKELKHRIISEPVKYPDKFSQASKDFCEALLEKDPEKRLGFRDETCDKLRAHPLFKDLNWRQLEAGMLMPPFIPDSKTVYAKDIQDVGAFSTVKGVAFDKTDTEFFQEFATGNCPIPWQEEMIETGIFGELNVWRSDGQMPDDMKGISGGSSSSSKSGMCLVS

[5] = target: T3, Mitogen-activated protein kinase kinase kinase kinase 2 (Homo sapiens) (UniProt Q12851); test: Inhibition of MAP4K2 (unknown origin) assessed as residual activity at 1000 nM by KINOMEscan analysis relative to control
T3 sequence (whole entry): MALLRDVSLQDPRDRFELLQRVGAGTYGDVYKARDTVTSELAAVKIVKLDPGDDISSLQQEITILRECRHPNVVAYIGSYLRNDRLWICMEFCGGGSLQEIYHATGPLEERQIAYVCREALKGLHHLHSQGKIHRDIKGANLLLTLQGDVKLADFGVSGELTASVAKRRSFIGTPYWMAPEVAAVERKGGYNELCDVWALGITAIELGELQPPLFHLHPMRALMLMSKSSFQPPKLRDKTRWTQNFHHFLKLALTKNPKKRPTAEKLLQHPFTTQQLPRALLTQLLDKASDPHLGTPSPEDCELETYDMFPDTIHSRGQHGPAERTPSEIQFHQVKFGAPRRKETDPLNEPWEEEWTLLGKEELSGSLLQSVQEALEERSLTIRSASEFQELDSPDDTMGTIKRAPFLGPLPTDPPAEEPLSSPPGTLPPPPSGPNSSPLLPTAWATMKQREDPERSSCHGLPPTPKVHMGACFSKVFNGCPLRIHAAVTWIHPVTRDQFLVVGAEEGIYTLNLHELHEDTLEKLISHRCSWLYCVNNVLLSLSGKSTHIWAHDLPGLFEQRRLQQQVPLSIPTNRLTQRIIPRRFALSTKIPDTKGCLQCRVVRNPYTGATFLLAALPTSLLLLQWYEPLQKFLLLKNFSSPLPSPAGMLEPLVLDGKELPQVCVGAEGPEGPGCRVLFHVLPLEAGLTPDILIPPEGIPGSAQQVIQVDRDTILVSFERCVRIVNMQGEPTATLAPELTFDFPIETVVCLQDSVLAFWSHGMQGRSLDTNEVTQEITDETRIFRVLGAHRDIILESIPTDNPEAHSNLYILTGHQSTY

[6] = target: T4, Serine/threonine-protein kinase RIO1 (Homo sapiens) (UniProt Q9BRS2); test: Inhibition of RIOK1 (unknown origin) assessed as residual activity at 1000 nM by KINOMEscan analysis relative to control
T4 sequence (whole entry): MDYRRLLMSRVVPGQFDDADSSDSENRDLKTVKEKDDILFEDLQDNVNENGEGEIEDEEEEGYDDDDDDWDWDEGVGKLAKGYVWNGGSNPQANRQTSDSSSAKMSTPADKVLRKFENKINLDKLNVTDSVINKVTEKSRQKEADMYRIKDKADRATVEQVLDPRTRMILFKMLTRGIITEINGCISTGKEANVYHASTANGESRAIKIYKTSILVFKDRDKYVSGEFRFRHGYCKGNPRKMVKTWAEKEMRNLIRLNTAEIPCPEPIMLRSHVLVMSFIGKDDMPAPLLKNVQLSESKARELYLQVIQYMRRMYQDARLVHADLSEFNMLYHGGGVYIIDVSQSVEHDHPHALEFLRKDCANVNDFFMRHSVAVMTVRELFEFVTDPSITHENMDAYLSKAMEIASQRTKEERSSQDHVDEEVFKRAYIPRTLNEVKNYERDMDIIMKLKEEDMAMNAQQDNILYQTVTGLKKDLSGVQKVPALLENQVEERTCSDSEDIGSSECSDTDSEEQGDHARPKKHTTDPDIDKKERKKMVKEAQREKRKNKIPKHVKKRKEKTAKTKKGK

Structure (SMILES) | Activity [1] | Activity [2] | Activity [3] | Activity [4] | Activity [5] | Activity [6]
COc1cc2nc(C)nc(N[C@H](C)c3cccc(-c4cn[nH]c4)c3)c2cc1OC | 60% | 45% | 35% | 55% | 100% | 49%
COc1cc2ncnc(N[C@H](C)c3cccc4ccccc34)c2cc1OC | 100% | 99% | 100% | 94% | 78% | 82%

Source: ChEMBL document CHEMBL5678818, “Discovery of potent SOS1 inhibitors that block RAS activation via disruption of the RAS-SOS1 interaction” (Proc Natl Acad Sci U S A, 2019)
